According to US20100130604A1, “USE OF ROSMARINIC ACID IN MANUFACTURE OF MEDICAMENTS FOR TREATING OR PREVENTING HEPATIC AND RENAL DISEASES” (SHANGDONG LUYE NATURAL DRUG RESEARCH AND DEVELOPMENT CO., …, priority 2006, published 2010):

How the values were obtained:
CRF rats = assay: CRF induced by 5/6 nephrectomy in rats; format: in vivo, Sprague Dawley rats
Protocol: 130 rats were randomly divided into 13 groups, with 10 animals in each group, namely, a normal control group, a model group, methylprednisolone p.o. Group at 12 mg/kg, RA i.v. groups at 2.5 mg/kg, 5 mg/kg, 25 mg/kg, 75 mg/kg, and 150 mg/kg of RA, and RA p.o. groups at 5 mg/kg, 10 mg/kg, 50 mg/kg, 150 mg/kg, and 300 mg/kg of RA. Apart from the normal control group, all other rats were induced to CRF by cutting off 5/6 of the kidneys. 2/3 of the left kidney was removed in the first operation, and one week later the right kidney in the second operation. Dosing started one week after the second operation via p.o. or i.p. routes. Blood was collected from eyepit at week 4 and week 8 to determine creatinine and urea nitrogen levels in sera. 5 animals in each group were sacrificed at week 4 and […] were sacrificed at the end of the study. Pathological changes in renal function were observed through HE and PAS staining of histopathological sections.

CTGF mRNA = assay: RT-PCR detection of CTGF mRNA expression in HSC-T6; format: cell-based; settings: for CTGF mRNA expression rate (%): control 98.5
Protocol: Total RNA was extracted from the cell lysate obtained in section 2.3 according the manufacturer's instructions with UNIQ-10 column total RNA extraction kit. A UV spectrophotometer was used to measure the concentration and purity. This was repeated three times and the total RNA concentration was calculated.
Reaction system: 1 μL of RT product; 10 μL of 2×PCR Master; 1 μL of each of sense primer and anti-sense primer; added double distilled water to 20 μL.
Sense primer: 5′-[…]-3′;
Anti-sense primer: 5′-[…]-3′; primer length of 383 bp;
Internal standard GAPDH (Kangcheng Bio-tech Inc.), with sense primer as 5′-[…]-3′, anti-sense primer as 5′-[…]-3′, and length of 452 bp;
Reaction conditions: pre-denature at 94° C. for 2 min, denature at 94° C. for 45 s, anneal at 54.9° C. for 30 s, extend at 72° C. for 60 s, extend at 72° C. for 10 min after 35 cycles and detect with 1.2% agarose gel electrophoresis. Scan with gel image system and calculate the ratio of gray scale between CTGF and GAPDH as an indicator of CTGF expression.
According to the results from the MTT method, groups of 0, 10, and 50 mg/L RA were selected and subjected to RT-PCR.

## O=C(/C=C/c1ccc(O)c(O)c1)O[C@H](Cc1ccc(O)c(O)c1)C(=O)O [RA, R(+)2-{[3-(3,4-dihydroxylphenyl-(oxo-2-propenyl)oxy]3,4-dihydroxylphenylpropionic acid]}]
CRF rats; 4 weeks, p.o. 5 mg/kg
  Serum urea nitrogen: 20.21 ± 2.22 mg/dL
CRF rats; 4 weeks, p.o. 50 mg/kg
  Serum urea nitrogen: 19.95 ± 2.20 mg/dL
CRF rats; 8 weeks, p.o. 5 mg/kg
  Serum urea nitrogen: 25.98 ± 2.72 mg/dL
CRF rats; 8 weeks, p.o. 50 mg/kg
  Serum creatinine: 1.92 ± 0.32 mg/dL
CRF rats; 8 weeks, p.o. 300 mg/kg
  Serum creatinine: 1.74 ± 0.36 mg/dL
CRF rats; week 8
  renal pathological changes (HE, PAS): alleviated by RA treatment in a dose-dependent manner
CTGF mRNA; 10 mg/L
  CTGF mRNA expression rate (%): 71.2 ± 8.7 %
CTGF mRNA; 50 mg/L
  CTGF mRNA expression rate (%): 63.2 ± 9.2 %
CTGF mRNA; 10 and 50 mg/L
  CTGF mRNA expression in HSC-T6: significant inhibition on CTGF mRNA expression
